Test results: patent US6737383B1, “Herbicidal oxadiazolidines” (priority 1999, dated 2004)

Assays:
soybean = experiment: Test B pre/postemergence soybean; assay type: in vivo, Glycine max
In short: (§1)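 Response is a visual 0-to-10 score relative to untreated plants, where 0 means no effect and 10 means complete control, taken twelve to sixteen days after application. Treatments went onto soil at planting and onto foliage of 1- to 4-leaf plants, using a surfactant-containing non-phytotoxic solvent.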

crabgrass = experiment: Test B pre/postemergence crabgrass; assay type: in vivo, Digitaria sanguinalis
In short: as §1

wild oat = experiment: Test B pre/postemergence wild oat; assay type: in vivo, Avena fatua
In short: as §1

morningglory = experiment: Test B pre/postemergence morningglory; assay type: in vivo, Ipomoea hederacea
In short: as §1

rape = experiment: Test B pre/postemergence rape; assay type: in vivo, Brassica napus
In short: as §1

corn = experiment: Test B pre/postemergence corn; assay type: in vivo, Zea mays
In short: as §1

surinam grass = experiment: Test B pre/postemergence surinam grass; assay type: in vivo, Brachiaria decumbens
In short: as §1

wheat = experiment: Test B pre/postemergence wheat; assay type: in vivo, Triticum aestivum
In short: as §1

sugar beet = experiment: Test B pre/postemergence sugar beet; assay type: in vivo, Beta vulgaris
In short: as §1

cocklebur = experiment: Test B pre/postemergence cocklebur; assay type: in vivo, Xanthium strumarium
In short: as §1

giant foxtail = experiment: Test B pre/postemergence giant foxtail; assay type: in vivo, Setaria faberii
In short: as §1

bedstraw = experiment: Test B pre/postemergence bedstraw; assay type: in vivo, Galium aparine
In short: as §1

blackgrass = experiment: Test B pre/postemergence blackgrass; assay type: in vivo, Alopecurus myosuroides
In short: as §1

velvetleaf = experiment: Test B pre/postemergence velvetleaf; assay type: in vivo, Abutilon theophrasti
In short: as §1

pigweed = experiment: Test B pre/postemergence pigweed; assay type: in vivo, Amaranthus retroflexus
In short: as §1

purple nutsedge = experiment: Test B pre/postemergence purple nutsedge; assay type: in vivo, Cyperus rotundus; conditions: Postemergence; for Nutsedge plant response rating: 10 is complete control; for Plant response rating, Nutsedge: scale of 0 to 10 where 0 is no effect and 10 is complete control
In short: as §1

[1] = Postemergence, Rate 62 g/ha, scale of 0 to 10, 0 is no effect, 10 is complete control
[2] = Postemergence, Rate 500 g/ha, scale of 0 to 10 where 0 is no effect and 10 is complete control
[3] = Preemergence, Rate 62 g/ha, scale 0 to 10 (0 no effect, 10 complete control)
[4] = Preemergence, Rate 125 g/ha, scale 0 to 10, 0 is no effect, 10 is complete control
[5] = Preemergence, Rate 500 g/ha, scale of 0 to 10 where 0 is no effect and 10 is complete control
[6] = Rate 250 g/ha, Postemergence, scale of 0 to 10 where 0 is no effect and 10 is complete control
[7] = Postemergence, Rate 125 g/ha, scale 0 to 10, 0 is no effect, 10 is complete control

CC(C)N(C(=O)n1oc(=O)n(CCCF)c1=O)c1ccccc1 [Compound 559]
6: Plant response rating, Soybean (soybean; [2]) | Corn plant response rating (0 to 10 scale) (corn; Preemergence, Rate 250 g/ha) | Corn plant response rating (corn; [5]) | Plant response rating, Corn (corn; [6]) | Sugarbeets plant response rating (sugar beet; [4]) | Velvetleaf plant response rating (0 to 10 scale) (velvetleaf; Preemergence, Rate 250 g/ha)
9: Plant response rating, Crabgrass (crabgrass; [2]) | Crabgrass plant response rating (crabgrass; [3]) | Plant response rating, Crabgrass (crabgrass; [6]) | Wild oats plant response rating (wild oat; [4]) | Wild oats plant response rating (0 to 10 scale) (wild oat; Preemergence, Rate 250 g/ha) | Wild oats plant response rating (wild oat; [5]) | Morningglory plant response rating (morningglory; [1]) | Plant response rating, Morningglory (morningglory; [6]) | Rape plant response rating (rape; [4]) | B. signalgrass plant response rating (surinam grass; [7]) | Plant response rating, B. signalgrass (surinam grass; [2]) | B. signalgrass plant response rating (0 to 10 scale, 0 is no effect, 10 is complete control) (surinam grass; Preemergence, Rate 250 g/ha) | B. signalgrass plant response rating (surinam grass; [5]) | Plant response rating, B. signalgrass (surinam grass; [6]) | Wheat plant response rating (0 to 10 scale) (wheat; Preemergence, Rate 250 g/ha) | Wheat plant response rating (wheat; [5]) | Sugarbeets plant response rating (0 to 10 scale) (sugar beet; Preemergence, Rate 250 g/ha) | Sugarbeets plant response rating (sugar beet; [5]) | Giant foxtail plant response rating (giant foxtail; [1]) | Giant foxtail plant response rating (giant foxtail; [7]) | Plant response rating, Giant foxtail (giant foxtail; [2]) | Plant response rating, Giant foxtail (giant foxtail; [6]) | Blackgrass plant response rating (blackgrass; [3]) | Velvetleaf plant response rating (velvetleaf; [5])
0: Soybean plant response rating (soybean; [3]) | Morningglory plant response rating (morningglory; [3]) | Rape plant response rating (rape; [1]) | Rape plant response rating (rape; [7]) | Corn plant response rating (corn; [1]) | Corn plant response rating (corn; [7]) | Sugarbeets plant response rating (sugar beet; [1]) | Cocklebur plant response rating (cocklebur; [1]) | Cocklebur plant response rating (cocklebur; [7]) | Cocklebur plant response rating (cocklebur; [3]) | Cocklebur plant response rating (cocklebur; [4]) | Cocklebur plant response rating (0 to 10 scale) (cocklebur; Preemergence, Rate 250 g/ha) | Plant response rating, Cocklebur (cocklebur; [6]) | Bedstraw plant response rating (bedstraw; [7]) | Bedstraw plant response rating (bedstraw; [3]) | Bedstraw plant response rating (bedstraw; [4]) | Bedstraw plant response rating (0 to 10 scale) (bedstraw; Preemergence, Rate 250 g/ha) | Bedstraw plant response rating (bedstraw; [5]) | Plant response rating, Bedstraw (bedstraw; [6]) | Velvetleaf plant response rating (velvetleaf; [1]) | Redroot pigweed plant response rating (pigweed; [1]) | Nutsedge plant response rating (purple nutsedge; Rate 62 g/ha, scale of 0 to 10, 0 is no effect) | Nutsedge plant response rating (purple nutsedge; Rate 125 g/ha, scale 0 to 10, 0 is no effect)
3: Soybean plant response rating (0 to 10 scale) (soybean; Preemergence, Rate 250 g/ha) | Soybean plant response rating (soybean; [5]) | Corn plant response rating (corn; [4]) | Plant response rating, Wheat (wheat; [2]) | Wheat plant response rating (wheat; [3]) | Sugarbeets plant response rating (sugar beet; [3]) | Plant response rating, Velvetleaf (velvetleaf; [2]) | Velvetleaf plant response rating (velvetleaf; [3]) | Plant response rating, Redroot pigweed (pigweed; [6])
8: Morningglory plant response rating (morningglory; [5]) | B. signalgrass plant response rating (surinam grass; [3]) | Wheat plant response rating (wheat; [4]) | Plant response rating, Sugarbeets (sugar beet; [2]) | Plant response rating, Redroot pigweed (pigweed; [2])
2: Soybean plant response rating (soybean; [4]) | Wild oats plant response rating (wild oat; [1]) | Morningglory plant response rating (morningglory; [4]) | Plant response rating, Rape (rape; [2]) | Plant response rating, Rape (rape; [6]) | Corn plant response rating (corn; [3]) | Wheat plant response rating (wheat; [1]) | Plant response rating, Wheat (wheat; [6]) | Plant response rating, Sugarbeets (sugar beet; [6]) | Plant response rating, Cocklebur (cocklebur; [2]) | Cocklebur plant response rating (cocklebur; [5]) | Plant response rating, Velvetleaf (velvetleaf; [6]) | Plant response rating, Nutsedge (purple nutsedge; Rate 500 g/ha) | Plant response rating, Nutsedge (purple nutsedge; Rate 250 g/ha)
5: Plant response rating, Soybean (soybean; [6]) | Crabgrass plant response rating (crabgrass; [1]) | Plant response rating, Wild oats (wild oat; [2])
7: Rape plant response rating (rape; [3]) | Plant response rating, Corn (corn; [2]) | Blackgrass plant response rating (blackgrass; [1]) | Blackgrass plant response rating (blackgrass; [7]) | Plant response rating, Blackgrass (blackgrass; [2]) | Plant response rating, Blackgrass (blackgrass; [6]) | Redroot pigweed plant response rating (pigweed; [3])
10: Crabgrass plant response rating (crabgrass; [4]) | Crabgrass plant response rating (0 to 10 scale) (crabgrass; Preemergence, Rate 250 g/ha) | Crabgrass plant response rating (crabgrass; [5]) | Morningglory plant response rating (morningglory; [7]) | Plant response rating, Morningglory (morningglory; [2]) | Rape plant response rating (0 to 10 scale) (rape; Preemergence, Rate 250 g/ha) | Rape plant response rating (rape; [5]) | B. signalgrass plant response rating (surinam grass; [4]) | Giant foxtail plant response rating (giant foxtail; [3]) | Giant foxtail plant response rating (giant foxtail; [4]) | Giant foxtail plant response rating (0 to 10 scale) (giant foxtail; Preemergence, Rate 250 g/ha) | Giant foxtail plant response rating (giant foxtail; [5]) | Blackgrass plant response rating (blackgrass; [4]) | Blackgrass plant response rating (0 to 10 scale) (blackgrass; Preemergence, Rate 250 g/ha) | Blackgrass plant response rating (blackgrass; [5]) | Redroot pigweed plant response rating (pigweed; [4]) | Redroot pigweed plant response rating (0 to 10 scale) (pigweed; Preemergence, Rate 250 g/ha) | Redroot pigweed plant response rating (pigweed; [5])
4: Soybean plant response rating (soybean; [1]) | Crabgrass plant response rating (crabgrass; [7]) | Plant response rating, Wild oats (wild oat; [6]) | Morningglory plant response rating (0 to 10 scale) (morningglory; Preemergence, Rate 250 g/ha) | B. signalgrass plant response rating (surinam grass; [1]) | Plant response rating, Bedstraw (bedstraw; [2]) | Velvetleaf plant response rating (velvetleaf; [4])
